Where two headings read alike, the source gives them in different places.
Tests used:
pluripotent macrophages [1] = test: in vitro differentiation of monocytes-derived pluripotent macrophages into neuronal-like cells; settings: for effect on cells of increased concentration or number of doses: concentration increased above the recommended ones, or number of doses increased
Experimental: (§1) Isolated monocytes were centrifuged and resuspended in DMEM/10% FBS at a concentration of 550 cells/ml. M-CSF (Macrophage colony-stimulating factor) was added to resuspended cells at a concentration of 1:2000 with a stock solution at 0.1 mg/ml.
(§2) 1.2 million monocytes were plated per each 9.6 cm^2 well of a 6-well plate, 550,000 monocytes per each 3.1 cm^2 well of a 12-well plate, and 6 million monocytes per each 25 cm^2 flask. To ensure that monocytes became confluent and evenly distributed, and thus maintained a good differentiation rate, flasks and plates remained horizontal throughout the protocol, plating was done slowly by gently releasing monocytes from the pipette. Plated cells were left at room temperature for at least 15 min so that cells became fully attached to the surface of the plates or flasks, and subsequently incubated at 37° C. with 5% CO2 until day 4.
(§3) Once the tubes of steps e) and f) were at 37° C., the growth factor BHA (butylated hydroxyanizole) was added to the culture medium of monocytes at a final concentration of 50 nM, as follows: • g) adding 10 μl of 100 mM BHA (0.0089 grams of BHA+500 μL ethanol) to the 10 ml of DMEM/10% FBS of step e), thereby obtaining a 100 μM BHA/DMEM solution. Then diluting 10 μl of this 100 μM solution with a further 10 ml of DMEM/10% FBS heated at 37° C., thereby obtaining a 100 nM BHA/DMEM solution; • h) discarding the medium of the 6- and 12-well plates containing the monocytes isolated from the same subject as the PBMCs of step b); • i) adding the BHA/DMEM solution and the conditioned medium to each well of the plates in a 1:1 ratio, i.e.: • 1.5 ml of the 100 nM BHA/DMEM of step g) and 1.5 ml of the PBMCs conditioned medium of step f), for each well of a 6-well plate, and • 1 ml of the 100 nM BHA/DMEM of step g) and 1 ml of the PBMCs conditioned medium of step f), for each well of a 12-well plate; • j) incubating the plates at 37° C. with 5% CO2 until day 10. […]

pluripotent macrophages [2] = system: pluripotent macrophages
Experimental: as §1, §2, §3

CC1=C(/C=C/C(C)=C/C=C/C(C)=C/C(=O)O)C(C)(C)CCC1 [RA, Retinoic Acid]
effect on cells of increased concentration or number of doses (pluripotent macrophages [1]): damaged the cells

IGF-1: Recombinant human Insulin Growth Factor-1 (Peprotech)
effect on cells of increased concentration or number of doses (pluripotent macrophages [2]): damaged the cells

IGF-2: Insulin growth factor-2, exogenous factor tested as replacement
cell viability (pluripotent macrophages [1]; replacing IGF-1 by this factor): did not improve cell viability

COc1ccc(O)c(C(C)(C)C)c1 [BHA, Butylated hydroxyanisole]
effect on cells of increased concentration or number of doses (pluripotent macrophages [1]): damaged the cells

— US9932556B2, “Method for in vitro differentiation of blood circulating cells into neuronal-like cells and applications thereof” (Centre National de la Recherche Scientifique (CNRS), priority 2013, dated 2018)
